# Data from patent US9604933B2, “Pyrazolochalcones as potential anticancer agents” (COUNCIL OF SCIENTIFIC AND INDUSTRIAL RESEARCH, priority 2013, dated 2017).
# Tests used:
# CCRF-CEM = assay: NCI SRB cytotoxicity, leukemia CCRF-CEM; format: cell-based; settings: Homo sapiens, 48 h exposure
# Protocol: (§1) The pyrazolochalcones (7e, 8e, 10e, 11e, 12e, 13e and 8f) have been tested against fifty nine human tumor cell lines derived from nine cancer types (leukemia, non-small cell lung cancer, colon cancer, CNS cancer, melanoma, ovarian cancer, renal cancer, prostate cancer and breast cancer) as per the NCI protocol. For each compound, dose response curves for individual cell lines have been measured at a minimum of five concentrations at 10 fold dilutions. A protocol of 48 h continuous drug exposure has been used, and a sulforhodamine B (SRB) protein assay has been used to estimate cell viability or growth. The concentration for 50% cell growth inhibition (GI50), 50% cell death (LC50, 50% growth) and total cell growth inhibition (TGI, 0% growth) values were tabulated (Table-1). DMSO was used as control to calculate the values of GI50, LC50 and TGI. The compounds 7e, 8e, 10e, 11e, 12e, 13e and 8f has been evaluated for their in vitro cytotoxicity in […] cell lines from nine human cancer types of leukemia (K-562, SR), non-small cell lung (Hop-62, NCI-H226, NCI-H522), colon (HCT-116, HCT-15, HCC-2998), CNS (SF-539), melanoma (SK-MEL-5, UACC-62, M14), ovarian (IGROV1), renal (A498), prostate (PC3) and breast (BT-549, MDA-MB-435, HS578T) origin. The results are expressed as percent of cell growth determined relative to that of untreated control cells (Table 2).
# HL-60(TB) = assay: NCI SRB cytotoxicity, leukemia HL-60(TB); format: cell-based; settings: Homo sapiens, 48 h exposure
# Protocol: as §1
# MOLT-4 = assay: NCI SRB cytotoxicity, leukemia MOLT-4; format: cell-based; settings: Homo sapiens, 48 h exposure
# Protocol: as §1
# A549/ATCC = assay: NCI SRB cytotoxicity, non-small cell lung A549/ATCC; format: cell-based; settings: Homo sapiens, 48 h exposure
# Protocol: as §1
# NCI-H226 = assay: NCI SRB cytotoxicity, non-small cell lung NCI-H226; format: cell-based; settings: Homo sapiens, 48 h exposure
# Protocol: as §1
# NCIH322M = assay: NCI SRB cytotoxicity, non-small cell lung NCIH322M; format: cell-based; settings: Homo sapiens, NCI-H322M, 48 h exposure
# Protocol: as §1
# NCI-H522 = assay: NCI SRB cytotoxicity, non-small cell lung NCI-H522; format: cell-based; settings: Homo sapiens, 48 h exposure
# Protocol: as §1
# COLO-205 = assay: NCI SRB cytotoxicity, colon COLO-205; format: cell-based; settings: Homo sapiens, 48 h exposure
# Protocol: as §1
# HCT-116 = assay: NCI SRB cytotoxicity, colon HCT-116; format: cell-based; settings: Homo sapiens, 48 h exposure
# Protocol: as §1
# HT29 = assay: NCI SRB cytotoxicity, colon HT29; format: cell-based; settings: Homo sapiens, HT-29, 48 h exposure
# Protocol: as §1
# SW-620 = assay: NCI SRB cytotoxicity, colon SW-620; format: cell-based; settings: Homo sapiens, 48 h exposure
# Protocol: as §1
# SF-268 = assay: NCI SRB cytotoxicity, CNS SF-268; format: cell-based; settings: Homo sapiens, 48 h exposure
# Protocol: as §1
# SF-539 = assay: NCI SRB cytotoxicity, CNS SF-539; format: cell-based; settings: Homo sapiens, 48 h exposure
# Protocol: as §1
# SNB-19 = assay: NCI SRB cytotoxicity, CNS SNB-19; format: cell-based; settings: Homo sapiens, 48 h exposure
# Protocol: as §1
# LOX IMVI = assay: NCI SRB cytotoxicity, melanoma LOX IMVI; format: cell-based; settings: Homo sapiens, 48 h exposure
# Protocol: as §1
# MALME-3M = assay: NCI SRB cytotoxicity, melanoma MALME-3M; format: cell-based; settings: Homo sapiens, 48 h exposure
# Protocol: as §1
# M14 = assay: NCI SRB cytotoxicity, melanoma M14; format: cell-based; settings: Homo sapiens, 48 h exposure
# Protocol: as §1
# SK-MEL-28 = assay: NCI SRB cytotoxicity, melanoma SK-MEL-28; format: cell-based; settings: Homo sapiens, 48 h exposure
# Protocol: as §1
# SK-MEL-5 = assay: NCI SRB cytotoxicity, melanoma SK-MEL-5; format: cell-based; settings: Homo sapiens, 48 h exposure
# Protocol: as §1
# UACC-62 = assay: NCI SRB cytotoxicity, melanoma UACC-62; format: cell-based; settings: Homo sapiens, 48 h exposure
# Protocol: as §1
# OVCAR-3 = assay: NCI SRB cytotoxicity, ovarian OVCAR-3; format: cell-based; settings: Homo sapiens, 48 h exposure
# Protocol: as §1
# NCI/ADR-RES = assay: NCI SRB cytotoxicity, ovarian NCI/ADR-RES; format: cell-based; settings: Homo sapiens, 48 h exposure
# Protocol: as §1
# A498 = assay: NCI SRB cytotoxicity, renal A498; format: cell-based; settings: Homo sapiens, 48 h exposure
# Protocol: as §1
# ACHN = assay: NCI SRB cytotoxicity, renal ACHN; format: cell-based; settings: Homo sapiens, 48 h exposure
# Protocol: as §1
# CAKI-1 = assay: NCI SRB cytotoxicity, renal CAKI-1; format: cell-based; settings: Homo sapiens, 48 h exposure
# Protocol: as §1
# RXF 393 = assay: NCI SRB cytotoxicity, renal RXF 393; format: cell-based; settings: Homo sapiens, 48 h exposure
# Protocol: as §1
# SN12C = assay: NCI SRB cytotoxicity, renal SN12C; format: cell-based; settings: Homo sapiens, 48 h exposure
# Protocol: as §1
# TK-10 = assay: NCI SRB cytotoxicity, renal TK-10; format: cell-based; settings: Homo sapiens, 48 h exposure
# Protocol: as §1
# UO-31 = assay: NCI SRB cytotoxicity, renal UO-31; format: cell-based; settings: Homo sapiens, 48 h exposure
# Protocol: as §1
# PC-3 = assay: NCI SRB cytotoxicity, prostate PC-3; format: cell-based; settings: Homo sapiens, 48 h exposure
# Protocol: as §1
# BT-549 = assay: NCI SRB cytotoxicity, breast BT-549; format: cell-based; settings: Homo sapiens, 48 h exposure
# Protocol: as §1
# T-47D = assay: NCI SRB cytotoxicity, breast T-47D; format: cell-based; settings: Homo sapiens, T47D, 48 h exposure
# Protocol: as §1
# Leukemia = assay: NCI SRB cytotoxicity, leukemia panel average; format: cell-based, human; settings: average of cell lines
# Protocol: as §1
# (§2) Each cancer type represents the average of six to eight different cancer cell lines.
# Colon = assay: NCI SRB cytotoxicity, colon panel average; format: cell-based, human; settings: average of cell lines
# Protocol: as §1, §2
# CNS = assay: NCI SRB cytotoxicity, CNS panel average; format: cell-based, human; settings: average of cell lines
# Protocol: as §1, §2
# Melanoma = assay: NCI SRB cytotoxicity, melanoma panel average; format: cell-based, human; settings: average of cell lines
# Protocol: as §1, §2
# Ovarian = assay: NCI SRB cytotoxicity, ovarian panel average; format: cell-based, human; settings: average of cell lines
# Protocol: as §1, §2
# Prostate = assay: NCI SRB cytotoxicity, prostate panel average; format: cell-based, human; settings: average of cell lines
# Protocol: as §1, §2
# Breast = assay: NCI SRB cytotoxicity, breast panel average; format: cell-based, human; settings: average of cell lines
# Protocol: as §1, §2
# [1] = Homo sapiens, read-out: Log10 LC50 (concentration in mol/L causing 50% cell death) (converted)
structure (smiles),measurement,setting,value
"COc1cc(-c2cc(/C=C/C(=O)c3ccc(F)c(F)c3)[nH]n2)cc(OC)c1OC [13e, (E)-1-(3,4-difluorophenyl)-3-(3-(3,4,5-trimethoxyphenyl)-1H-pyrazol-5-yl)prop-2-en-1-one]",GI50,CCRF-CEM,3.8 µM
same,GI50,HL-60(TB),2480 nM
same,GI50,MOLT-4,2720 nM
same,GI50,A549/ATCC,2430 nM
same,GI50,NCI-H226,3.72 µM
same,GI50,NCIH322M,3.37 µM
same,GI50,NCI-H522,1570 nM
same,GI50,COLO-205,1690 nM
same,GI50,HCT-116,4 µM
same,GI50,HT29,2620 nM
same,GI50,SW-620,3.42 µM
same,GI50,SF-268,3.15 µM
same,GI50,SF-539,3.76 µM
same,GI50,SNB-19,3.64 µM
same,GI50,LOX IMVI,3.18 µM
same,GI50,MALME-3M,2960 nM
same,GI50,M14,2700 nM
same,GI50,SK-MEL-28,5.31 µM
same,GI50,SK-MEL-5,2270 nM
same,GI50,UACC-62,2380 nM
same,GI50,OVCAR-3,2390 nM
same,GI50,NCI/ADR-RES,3.46 µM
same,GI50,A498,2110 nM
same,GI50,ACHN,3.26 µM
same,GI50,CAKI-1,2980 nM
same,GI50,RXF 393,2050 nM
same,GI50,SN12C,3.37 µM
same,GI50,TK-10,2290 nM
same,GI50,UO-31,2630 nM
same,GI50,PC-3,1660 nM
same,GI50,BT-549,4.11 µM
same,GI50,T-47D,2450 nM
same,CC50,Leukemia; [1],0.0001 mol/L
same,Log10 GI50 (concentration in mol/L causing 50% growth inhibition),Leukemia,−5.57 mol/L
same,Log10 TGI (concentration in mol/L causing total growth inhibition (0% growth)),Leukemia,−4.76 mol/L
same,LC50,Colon; [1],58.9 µM
same,Log10 GI50 (concentration in mol/L causing 50% growth inhibition),Colon,−5.52 mol/L
same,Log10 TGI (concentration in mol/L causing total growth inhibition),Colon,−4.70 mol/L
same,LC50,CNS; [1],91.2 µM
same,Log10 GI50 (concentration in mol/L causing 50% growth inhibition),CNS,−5.47 mol/L
same,Log10 TGI (concentration in mol/L causing total growth inhibition (0% growth)),CNS,−4.38 mol/L
same,LC50,Melanoma; [1],64.6 µM
same,Log10 GI50 (concentration in mol/L causing 50% growth inhibition),Melanoma,−5.56 mol/L
same,Log10 TGI (concentration in mol/L causing total growth inhibition),Melanoma,−5.00 mol/L
same,CC50,Ovarian; [1],89.1 µM
same,Log10 GI50 (concentration in mol/L causing 50% growth inhibition),Ovarian,−5.5 mol/L
same,Log10 TGI (concentration in mol/L causing total growth inhibition (0% growth)),Ovarian,−4.45 mol/L
same,CC50,Prostate; [1],0.0001 mol/L
same,Log10 GI50 (concentration in mol/L causing 50% growth inhibition),Prostate,−5.78 mol/L
same,Log10 TGI (concentration in mol/L causing total growth inhibition (0% growth)),Prostate,−5.24 mol/L
same,CC50,Breast; [1],97.7 µM
same,Log10 GI50 (concentration in mol/L causing 50% growth inhibition),Breast,−5.56 mol/L
same,Log10 TGI (concentration in mol/L causing total growth inhibition (0% growth)),Breast,−4.83 mol/L
